Results from ChEMBL document CHEMBL4421721, “Use of dynamin ring stabilizers” (2012).
Activity calls are given as the source filed them. No cut-off for these calls is given here.

Legend:
Ovis aries [1] = species on record: Ovis aries; assay: Ring stabilizer activity at full-length native sheep brain dynamin 1 assessed as stimulation of GTPase activity in absence of PS liposomes and in presence of tween-80
[2] = Inhibition of full-length native sheep brain dynamin 1 assessed as reduction in PS liposomes-induced GTPase activity in absence of tween-80 using 7 nM full-length dynamin 1; design: species or system Ovis aries
[3] = Inhibition of full-length native sheep brain dynamin 1 assessed as reduction in PS liposomes-induced GTPase activity in presence of tween-80 using 7 nM full-length dynamin 1; design: species or system Ovis aries
Ovis aries [4] = species on record: Ovis aries; assay: (§1) Ring stabilizer activity at full-length native sheep brain dynamin 1 assessed as stimulation of GTPase activity in absence of PS liposomes
Ovis aries [5] = species on record: Ovis aries; assay: Inhibition of dis-assembly of pre-assembled full-length native sheep brain dynamin 1 pre-incubated in presence of PS liposomes followed compound addition at 5 uM and measured after 10 mins
[6] = Ring stabilizer activity at full-length native sheep brain dynamin 1 assessed as stimulation of GTPase activity in absence of PS liposomes using 200 nM full-length dynamin 1; design: species or system Ovis aries
[7] = Inhibition of full-length native sheep brain dynamin 1 assessed as reduction in PS liposomes-induced GTPase activity using 20 nM full-length dynamin 1; design: species or system Ovis aries
[8] = as §1; design: species or system Ovis aries
Dynamin-1 (Homo sapiens) = target: T1, Dynamin-1 (Homo sapiens) (UniProt Q05193); assay: Ring stabilizer activity at recombinant dynamin 1 dimeric GG2 form (unknown origin) assessed as stimulation of GTPase activity using 200 to 1000 nM full-length dynamin
T1 sequence (whole entry): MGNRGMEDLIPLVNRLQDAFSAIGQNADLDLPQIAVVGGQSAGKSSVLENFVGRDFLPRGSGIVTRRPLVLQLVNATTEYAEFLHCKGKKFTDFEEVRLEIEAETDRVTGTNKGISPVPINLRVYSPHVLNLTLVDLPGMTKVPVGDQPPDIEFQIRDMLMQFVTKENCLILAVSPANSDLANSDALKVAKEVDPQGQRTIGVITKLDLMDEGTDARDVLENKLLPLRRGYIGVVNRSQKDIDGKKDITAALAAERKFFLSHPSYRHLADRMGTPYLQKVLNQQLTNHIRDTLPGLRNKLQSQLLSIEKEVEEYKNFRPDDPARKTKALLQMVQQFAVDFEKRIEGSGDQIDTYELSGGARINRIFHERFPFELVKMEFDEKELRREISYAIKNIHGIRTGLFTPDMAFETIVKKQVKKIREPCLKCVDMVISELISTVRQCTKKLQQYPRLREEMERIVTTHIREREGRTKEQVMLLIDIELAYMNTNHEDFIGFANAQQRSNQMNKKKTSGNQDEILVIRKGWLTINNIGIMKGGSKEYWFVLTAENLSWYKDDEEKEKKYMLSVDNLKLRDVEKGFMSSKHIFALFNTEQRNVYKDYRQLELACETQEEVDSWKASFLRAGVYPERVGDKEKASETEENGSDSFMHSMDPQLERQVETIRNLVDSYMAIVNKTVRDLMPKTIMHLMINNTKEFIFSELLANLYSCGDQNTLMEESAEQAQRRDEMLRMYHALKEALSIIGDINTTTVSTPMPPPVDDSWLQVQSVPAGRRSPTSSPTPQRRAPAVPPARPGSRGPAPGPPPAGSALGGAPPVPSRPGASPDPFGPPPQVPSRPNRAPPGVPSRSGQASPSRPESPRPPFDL

[9] = target: T2, Dynamin-1 (Rattus norvegicus) (UniProt P21575); assay: Ring stabilizer activity at Dynamin-1 rat brain synaptosomes depolarised with KCl assessed as formation of trapped endocytic pits encircled by a single electron dense ring incubated for 30 mins by electron microscopic analysis; format: subcellular
T2 sequence (whole entry): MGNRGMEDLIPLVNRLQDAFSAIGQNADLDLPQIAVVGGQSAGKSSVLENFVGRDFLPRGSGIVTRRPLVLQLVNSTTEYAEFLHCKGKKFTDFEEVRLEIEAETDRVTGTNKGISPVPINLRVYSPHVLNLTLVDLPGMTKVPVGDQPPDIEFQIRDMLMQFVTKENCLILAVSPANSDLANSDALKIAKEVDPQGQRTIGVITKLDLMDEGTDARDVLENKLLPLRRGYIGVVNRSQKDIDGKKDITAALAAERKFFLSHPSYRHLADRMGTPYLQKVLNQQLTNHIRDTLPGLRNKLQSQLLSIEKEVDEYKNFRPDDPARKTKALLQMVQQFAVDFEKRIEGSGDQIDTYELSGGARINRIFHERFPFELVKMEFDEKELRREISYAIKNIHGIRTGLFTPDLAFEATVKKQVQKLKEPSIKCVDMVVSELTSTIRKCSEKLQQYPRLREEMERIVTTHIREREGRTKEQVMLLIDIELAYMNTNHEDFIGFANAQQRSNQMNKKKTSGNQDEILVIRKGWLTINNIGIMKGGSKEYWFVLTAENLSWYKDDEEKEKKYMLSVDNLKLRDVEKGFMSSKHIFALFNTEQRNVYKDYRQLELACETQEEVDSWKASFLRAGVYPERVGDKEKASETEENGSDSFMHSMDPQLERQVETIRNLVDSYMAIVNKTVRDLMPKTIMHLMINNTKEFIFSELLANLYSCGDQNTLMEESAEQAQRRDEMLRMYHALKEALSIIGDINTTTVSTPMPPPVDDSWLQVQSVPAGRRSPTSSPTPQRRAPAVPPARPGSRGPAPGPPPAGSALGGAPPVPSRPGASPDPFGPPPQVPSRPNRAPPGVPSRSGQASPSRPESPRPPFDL

Ovis aries [10] = species on record: Ovis aries; assay: Induction of ring assembly of full-length native sheep brain dynamin 1 at 100 uM using 520 nM full-length dynamin in presence of 40 to 60 […] by Coomassie staining based SDS gel electrophoresis method
Dynamin-2 (Homo sapiens) [11] = target: T3, Dynamin-2 (Homo sapiens) (UniProt P50570); assay: Ring stabilizer activity at Dynamin-2 in human lymphoblasts assessed as accumulation in all cells of clathrin coated pits with highly elongated necks encircled by electron dense rings incubated for 30 mins by electron microscopic analysis; format: cell-based
T3 sequence (whole entry): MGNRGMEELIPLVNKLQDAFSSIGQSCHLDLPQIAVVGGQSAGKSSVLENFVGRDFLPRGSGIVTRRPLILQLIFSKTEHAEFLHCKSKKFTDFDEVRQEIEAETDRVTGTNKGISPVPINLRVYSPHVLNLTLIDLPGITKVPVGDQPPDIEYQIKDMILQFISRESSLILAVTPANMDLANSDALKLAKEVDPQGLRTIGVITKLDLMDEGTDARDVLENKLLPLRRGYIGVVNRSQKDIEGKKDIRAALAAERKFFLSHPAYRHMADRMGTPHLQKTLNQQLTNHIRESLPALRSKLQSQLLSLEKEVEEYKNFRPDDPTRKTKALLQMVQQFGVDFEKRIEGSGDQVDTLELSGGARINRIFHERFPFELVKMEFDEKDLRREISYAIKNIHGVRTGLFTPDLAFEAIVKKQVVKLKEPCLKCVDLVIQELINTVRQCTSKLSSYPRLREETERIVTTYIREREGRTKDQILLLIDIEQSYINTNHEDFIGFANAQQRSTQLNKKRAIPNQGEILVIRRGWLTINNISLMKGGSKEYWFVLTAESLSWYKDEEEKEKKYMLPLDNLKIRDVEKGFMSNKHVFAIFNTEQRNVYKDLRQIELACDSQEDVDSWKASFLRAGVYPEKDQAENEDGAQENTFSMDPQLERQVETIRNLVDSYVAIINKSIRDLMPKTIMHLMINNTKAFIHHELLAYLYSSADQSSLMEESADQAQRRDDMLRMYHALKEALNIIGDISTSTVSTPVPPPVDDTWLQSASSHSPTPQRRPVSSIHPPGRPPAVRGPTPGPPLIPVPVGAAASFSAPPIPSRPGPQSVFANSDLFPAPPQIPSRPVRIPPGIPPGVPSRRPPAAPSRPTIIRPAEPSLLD

Ovis aries [12] = species on record: Ovis aries; assay: Induction of ring assembly of full-length native sheep brain dynamin 1 at 300 uM using 520 nM full-length dynamin in presence of 40 mM NaCl by Coomassie staining based SDS gel electrophoresis method
Dynamin-2 (Homo sapiens) [13] = target: T3, Dynamin-2 (Homo sapiens); assay: Ring stabilizer activity at Dynamin-2 in human lymphoblasts assessed as accumulation in all cells of clathrin coated pits with highly elongated necks incubated for 30 mins by electron microscopic analysis; format: cell-based
Dynamin-2 (Homo sapiens) [14] = target: T3, Dynamin-2 (Homo sapiens); assay: Inhibition of Dynamin-2 in human lymphoblasts assessed as accumulation of clathrin coated pits at the plasma membrane incubated for 30 mins by electron microscopic analysis
Dynamin-2 (Homo sapiens) [15] = target: Dynamin-2 (Homo sapiens) (UniProt P50570); assay: Inhibition of Dynamin-2 in human lymphoblasts incubated for 30 mins by electron microscopic analysis
[16] = Inhibition of full-length native sheep brain dynamin 1 assessed as reduction in PS liposomes-induced GTPase activity; design: species or system Ovis aries

With `CCCCCCCCNC(=O)/C(C#N)=C/c1c(C)n(CCN(C)C)c2ccccc12` the Activity (Ovis aries [1]) was “Active”.
With `O=C(N/N=C/c1cc(O)cc(O)c1)c1cc2ccccc2cc1O` the IC50 [2] was 39.8 µM and the IC50 [3] was “Not Active”.
With `CCCCCCCCNC(=O)/C(C#N)=C/c1cn(CCCN(C)C)c2ccccc12` the Activity (Ovis aries [1]) was “Active”, the Activity (Ovis aries [4]) was “inactive” and the inhibition (Ovis aries [5]) was “Active”.
In the case of `CCCCCCCCCCNC(=O)/C(C#N)=C/c1cn(CCN(C)C)c2ccccc12`, the Activity (Ovis aries [1]) is reported as “Active”.
In the case of `N=c1oc2c(O)cccc2cc1C(=O)NCCCNC(=O)c1cc2cccc(O)c2oc1=N`, the EC50 [6] is reported as “Not Active” and the IC50 [7] is reported as 36.6 µM.
Work on `COc1cc(/C=N/NC(=O)c2cc3ccccc3cc2O)c(O)cc1O` yielded an IC50 [2] of 3.6 µM and an IC50 ([3]; read-out: IC50) of 1170 µM.
In the case of `N=c1oc2c(O)c(O)ccc2cc1C(=O)NCCCNC(=O)c1cc2ccc(O)c(O)c2oc1=N`, the EC50 [8] is reported as 1 µM, the IC50 [7] is reported as 0.45 µM and the Activity (Dynamin-1 (Homo sapiens)) is reported as “inactive”.
With `N#C/C(=C\c1ccc(O)c(O)c1)C(=O)NCCCNC(=O)/C(C#N)=C/c1ccc(O)c(O)c1` the Activity (Ovis aries [1]) was “Active”, the Activity [9] was “Active” and the Activity (Ovis aries [10]) was “Active”. For the same compound, the Activity (Dynamin-2 (Homo sapiens) [11]) was “Active”, the Activity (Ovis aries [12]) was “Active” and the Activity (Dynamin-2 (Homo sapiens) [13]) was “Active”. For the same compound, the Activity (Dynamin-1 (Homo sapiens)) was “inactive”.
Compound `O=C(N/N=C/c1ccc(O)cc1O)c1cc2ccccc2cc1O` has an IC50 [2] of 7.3 µM and an IC50 ([3]; read-out: IC50) of 200 µM.
In the case of `O=C(N/N=C/c1cc(O)c(O)c(O)c1)c1cc2ccccc2cc1O`, the IC50 [2] is reported as 4.4 µM and the IC50 ([3]; read-out: IC50) is reported as 468 µM.
For `O=C(N/N=C/c1ccc(O)c(O)c1O)c1cc2ccccc2cc1O`, the IC50 [2] was 3.1 µM and the IC50 [3] was “Not Active”.
For `CCCCCCNC(=O)/C(C#N)=C/c1c(C)n(CCCN(C)C)c2ccccc12`, the Activity (Ovis aries [1]) was “Active”.
In the case of `O=C(N/N=C/c1ccc(O)c(O)c1)c1cc2ccccc2cc1O`, the Activity (Ovis aries [4]) is reported as “Active” and the inhibition (Dynamin-2 (Homo sapiens) [14]) is reported as “Active”.
For `CCCCCCNC(=O)/C(C#N)=C/c1c(C)n(CCN(C)C)c2ccccc12`, the Activity (Ovis aries [1]) was “Active”.
Compound `O=C(N/N=C/c1cccc(O)c1O)c1cc2ccccc2cc1O` has an IC50 [2] of 22.1 µM and an IC50 ([3]; read-out: IC50) of 19.8 µM.
For `N=c1oc2cc(O)c(O)cc2cc1C(=O)NCCCNC(=O)c1cc2cc(O)c(O)cc2oc1=N`, the EC50 [8] was 4 µM and the IC50 [7] was 0.26 µM.
`N=c1oc2cc(O)ccc2cc1C(=O)NCCCNC(=O)c1cc2ccc(O)cc2oc1=N` showed an EC50 ([6]; read-out: EC50) of 40 µM and an IC50 [7] of 17.3 µM.
In the case of CETRIMIDE, the inhibition (Dynamin-2 (Homo sapiens) [15]) is reported as “Active”.
With `O=C(N/N=C/c1cc(O)c(O)cc1O)c1cc2ccccc2cc1O` the Activity (Ovis aries [1]) was “inactive”, the IC50 [16] was 0.3 µM and the Activity (Ovis aries [4]) was “Active”. The IC50 ([3]; read-out: IC50) was 2.7 µM.
`N=c1oc2cc(O)c(O)cc2cc1C(=O)NCCNC(=O)c1cc2cc(O)c(O)cc2oc1=N` gave an EC50 ([6]; read-out: EC50) of 31 µM and an IC50 [7] of 0.33 µM.
For `CCCCCCCCCCCCCCCCCC[N+](C)(C)C`, the Activity (Ovis aries [1]) was “Active”.
